From ChEMBL document CHEMBL1131095, “Derivation of a three-dimensional pharmacophore model of substance P antagonists bound to the neurokinin-1 receptor” (J Med Chem, 1998)

What follows are compounds tested against T1, Substance-P receptor (Homo sapiens, UniProt P25103) (assay: Binding affinity was measured against the Tachykinin receptor 1 in CHO-expressed hNK1 using [125I]SP.).
T1 sequence (P25103 whole entry): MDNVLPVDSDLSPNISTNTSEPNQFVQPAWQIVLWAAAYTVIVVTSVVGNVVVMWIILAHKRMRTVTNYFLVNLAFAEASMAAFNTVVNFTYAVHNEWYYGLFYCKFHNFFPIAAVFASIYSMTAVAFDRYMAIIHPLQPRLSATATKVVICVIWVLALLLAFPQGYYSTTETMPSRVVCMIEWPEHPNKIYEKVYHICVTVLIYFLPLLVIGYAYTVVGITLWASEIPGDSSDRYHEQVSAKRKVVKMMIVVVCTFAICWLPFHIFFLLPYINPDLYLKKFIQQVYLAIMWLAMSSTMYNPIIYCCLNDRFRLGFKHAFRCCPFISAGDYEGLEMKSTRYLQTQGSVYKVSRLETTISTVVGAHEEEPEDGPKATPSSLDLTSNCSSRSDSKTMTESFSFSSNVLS

Structure (SMILES) | IC50 [nM]
FC(F)(F)c1cc(COCC2(c3ccccc3)CCCNC2)cc(C(F)(F)F)c1 (centres undefined) | 20
CC(=O)N[C@@H](Cc1csc2ccccc12)C(=O)OCc1cc(C(F)(F)F)cc(C(F)(F)F)c1 [L-709400] | 15.1
CN(Cc1ccccc1)C(=O)CN1CCC[C@H](OCc2cc(C(F)(F)F)cc(C(F)(F)F)c2)[C@@H]1c1ccccc1 | 0.398
COc1ccccc1CN[C@H]1C2CCN(CC2)[C@H]1Cc1ccccc1 | 234
FC(F)(F)c1cc(CO[C@H]2CCCN(Cc3ccco3)[C@H]2c2ccccc2)cc(C(F)(F)F)c1 | 39.8
O=C1O[C@@H](Cc2c[nH]c3ccccc23)C(=O)N1Cc1cccc(C(F)(F)F)c1 | 2690
FC(F)(F)c1cc(COCC2(c3ccccc3)CCCCN2)cc(C(F)(F)F)c1 (centres undefined) | 1
O=C1O[C@@H](Cc2c[nH]c3ccccc23)C(=O)N1Cc1cc(C(F)(F)F)cc(C(F)(F)F)c1 | 25.7
O=c1[nH]nc(CN2CCC[C@H](OCc3cc(C(F)(F)F)cc(C(F)(F)F)c3)[C@@H]2c2ccccc2)[nH]1 | 0.1
Cc1cc(C)cc(COC[C@@H](Nc2ccccc2)C(c2ccccc2)c2ccccc2)c1 | 81.3
FC(F)(F)c1cc(CO[C@H]2CCCN(Cc3nnc[nH]3)[C@H]2c2ccccc2)cc(C(F)(F)F)c1 | 0.2
FC(F)(F)c1cc(CN[C@H]2C3CCN(CC3)[C@H]2C(c2ccccc2)c2ccccc2)cc(C(F)(F)F)c1 | 2
FC(F)(F)c1cc(CO[C@H]2C3CCN(CC3)[C@H]2C(c2ccccc2)c2ccccc2)cc(C(F)(F)F)c1 [L-709210] | 195
c1ccc(CO[C@H]2C3CCN(CC3)[C@H]2C(c2ccccc2)c2ccccc2)cc1 | 75.9
FC(F)(F)c1cc(CO[C@H]2CCCN(Cc3nnco3)[C@H]2c2ccccc2)cc(C(F)(F)F)c1 | 1
FC(F)(F)c1cc(CO[C@H]2CCCN(Cc3nnn[nH]3)[C@H]2c2ccccc2)cc(C(F)(F)F)c1 | 39.8
c1ccc(CN[C@H]2C3CCN(CC3)[C@H]2C(c2ccccc2)c2ccccc2)cc1 | 28.8
N[C@H](COCc1ccccc1)C(c1ccccc1)c1ccccc1 | 363
FC(F)(F)c1cc(CO[C@H]2CCCN(Cc3cnc[nH]3)[C@H]2c2ccccc2)cc(C(F)(F)F)c1 | 1
Cc1cc(C)cc(CO[C@H]2C3CCN(CC3)[C@H]2C(c2ccccc2)c2ccccc2)c1 [L-706125] | 295
CC(=O)N[C@@H](Cc1c[nH]c2ccccc12)C(=O)OCc1cc(C)cc(C)c1 [L-708568] | 52.5
N[C@H](COCc1cccc(Cl)c1)C(c1ccccc1)c1ccccc1 | 75.9
FC(F)(F)c1cc(CO[C@H]2CCCN(Cc3ncc[nH]3)[C@H]2c2ccccc2)cc(C(F)(F)F)c1 | 0.501

The compounds below were run against T1, Substance-P receptor (assay: Binding affinity was measured against the Tachykinin receptor 1 in human IM-9 cells using [125I]Bolton-Hunter SP.).
Assay type: cell-based

Structure (SMILES) | IC50 [nM]
COc1ccccc1CN1CCN2CCC[C@H]1[C@@H]2c1ccccc1 | 0.363
COc1ccccc1CN[C@H]1C2CC3CCC(C2)N3[C@H]1C(c1ccccc1)c1ccccc1 | 0.912
COc1ccccc1CN1CN2CCC[C@H]1[C@@H]2c1ccccc1 | 0.617
COc1ccccc1[C@@H]1CC[C@@]2(CCCN[C@H]2c2ccccc2)N1 | 10000
c1ccc(CN[C@H]2C3C4CCCC3CN(C4)[C@H]2C(c2ccccc2)c2ccccc2)cc1 | 229
COc1ccccc1[C@@H]1CC[C@@]2(CCCN[C@H]2c2ccccc2)NC1 | 2
c1ccc(CN[C@H]2C3CC4CCC(C3)N4[C@H]2C(c2ccccc2)c2ccccc2)cc1 | 67.6
COc1ccccc1CN[C@H]1C2CC3CCCC2CN3[C@H]1C(c1ccccc1)c1ccccc1 (some centres undefined) | 1.91
c1ccc(CN[C@H]2C3CC4CCCC(C3)N4[C@H]2C(c2ccccc2)c2ccccc2)cc1 | 170

These compounds were tested against T1, Substance-P receptor (assay: Binding affinity was measured against the Tachykinin receptor 1 in human IM-9 cells using [3H]SP as ligand.).
Assay type: cell-based

Structure (SMILES) | IC50 [nM]
CN(C(=O)Cc1ccccc1)[C@H](Cc1ccc2ccccc2c1)NC(=O)C1(NC(=O)c2c[nH]c3ccccc23)CCCCC1 | 20
CN(Cc1ccccc1)C[C@H](Cc1ccc2ccccc2c1)NC(=O)[C@@H]1CCCC[C@@H]1NC(=O)c1c[nH]c2ccccc12 | 1260
CN(Cc1ccccc1)C(=O)[C@H](Cc1ccccc1)NC(=O)[C@@H]1CCCC[C@@H]1NC(=O)c1c[nH]c2ccccc12 | 126
CN(Cc1ccccc1)C(=O)[C@H](Cc1ccc2ccccc2c1)NC(=O)[C@@H]1CCCC[C@@H]1NC(=O)c1c[nH]c2ccccc12 | 12.6
CN(Cc1ccccc1)C(=O)[C@H](Cc1ccc2ccccc2c1)NC(=O)C1(NC(=O)c2c[nH]c3ccccc23)CCCCC1 | 1.26
COc1ccccc1CN[C@H]1[C@@H]2CCC[C@@H]2N[C@H]1c1ccccc1 | 2.4
O=C(Cc1ccccc1)N[C@H](Cc1ccc2ccccc2c1)NC(=O)[C@@H]1CCCC[C@@H]1NC(=O)c1c[nH]c2ccccc12 | 316
